Molecular target: T1, MC4 (Homo sapiens, UniProt P32245)
T1 construct: purchased Perkin Elmer BioSignal; host or cells: HEK 293
Experiment: GPCR radioligand binding (RLB) assay, melanocortin MC4, [125I]NDP-αMSH
Details: for MC4 Inhibition at 4.0 Micromolar: Example Library 10; for MC4 inhibition at 10 micromolar: 10 micromolar compound, recombinant human receptor membranes (HEK 293)
Method: Recombinant human receptors expressed in HEK 293 cells were used for all experiments. Receptor membrane preparations were purchased from Perkin Elmer BioSignal. The labelled ligand used in somatostatin GPCR RLB assays was [^125I]SST-14 and in melanocortin assays was [^125I]NDP-αMSH. All assays were done in a 96-well plate format using either glass fiber filter mats or filter plates. All reagents purchased were of the highest quality.
Specific assay buffer, incubation and washing conditions were optimized for each receptor however they all followed the same general format. The procedures for both filter mat and filter plate formats are based on the receptor manufacturers recommendations or those described extensively in the literature. The procedures are briefly outlined below.
In assays where filter mats are used we incubate receptor membranes, assay buffer and [^125I] labelled ligand in 96 well microplates. Add compounds to incubation mixture and continue incubation for optimized period. Presoak Filter mat GF/B in 0.5% PEI for ˜2 hr at 4° C. On completion of assay mixture incubation add additional 100 μL/well of assay buffer immediately prior to filtration. Filter the assay mixture onto the GF/B filter mat using a cell harvester. Dry the filter mats prior to sealing them into a scintillation counting bag with scintillant. Radioactivity in each well is detected by liquid scintillation counting.
In assays where filter plates are used Multiscreen glass fiber filter plates (Millipore, Cat No MAFCNOB10) are precoated with 0.5% PEI for ˜2 hr at 4° C. All wells are then washed with 200 µl/well assay buffer and filtered using the Multiscreen Separation System. Subsequently receptor membranes, assay buffer and labelled ligands are added to the wells and equilibrated. Compounds for testing are then added to the mixture and incubation is continued for an optimized time. Plates are then put into the Multiscreen Separation System and the assay mixture is filtered through the plate under vacuum. Each well is then washed several times with assay buffer. Plates are then dried prior to putting sealing tape onto the bottom of the plate. Scintillant is added to each well and radioactivity measured by liquid scintillation counting.
Raw data was analysed according to standard methods using either GraphPad Prism software or IDDBS ActivityBase software.

T1 sequence (P32245 whole entry): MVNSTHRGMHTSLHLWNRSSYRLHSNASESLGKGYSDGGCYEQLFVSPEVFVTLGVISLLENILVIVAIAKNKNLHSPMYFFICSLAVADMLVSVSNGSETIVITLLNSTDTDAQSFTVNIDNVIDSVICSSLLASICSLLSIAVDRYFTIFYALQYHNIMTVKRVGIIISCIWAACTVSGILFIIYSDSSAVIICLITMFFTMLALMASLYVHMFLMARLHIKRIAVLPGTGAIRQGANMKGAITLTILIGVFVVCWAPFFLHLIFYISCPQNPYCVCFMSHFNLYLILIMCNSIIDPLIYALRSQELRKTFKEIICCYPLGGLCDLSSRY

Compound | MC4 Inhibition at 4.0 Micromolar | MC4 inhibition at 10 micromolar
NCCC(=O)N[C@H]1C(OCc2ccc3ccccc3c2)O[C@H](COCc2ccccc2)[C@@H](O)[C@@H]1OCc1ccccc1 (single isomer, unassigned) [Compound 362] | + (Indicates inhibition greater than . . . 50%) | –
NCCC(=O)N[C@H]1C(OCc2ccc3ccccc3c2)O[C@H](COCc2ccccc2)[C@@H](O)[C@@H]1OCc1ccccc1 (single isomer, unassigned) [Compound 363] | + (Indicates inhibition greater than . . . 50%) | –
NCCCC(=O)N[C@H]1C(OCc2ccc3ccccc3c2)O[C@H](COCc2ccc3ccccc3c2)[C@@H](O)[C@@H]1OCc1ccc(Cl)cc1 (single isomer, unassigned) [Compound 365] | + (Indicates inhibition greater than . . . 50%) | –
NCCCC(=O)N[C@H]1C(OCc2ccc3ccccc3c2)O[C@H](COCc2ccc3ccccc3c2)[C@@H](O)[C@@H]1OCc1ccc(Cl)cc1 (single isomer, unassigned) [Compound 366] | + (Indicates inhibition greater than . . . 50%) | –
NCCCC(=O)N[C@H]1C(OCc2ccc3ccccc3c2)O[C@H](COCc2ccc(Cl)cc2)[C@@H](O)[C@@H]1OCc1ccc(Cl)cc1 (single isomer, unassigned) [Compound 367] | + (Indicates inhibition greater than . . . 50%) | –
NCCCC(=O)N[C@H]1C(OCc2ccc3ccccc3c2)O[C@H](COCc2ccc(Cl)cc2)[C@@H](O)[C@@H]1OCc1ccc(Cl)cc1 (single isomer, unassigned) [Compound 368] | + (Indicates inhibition greater than . . . 50%) | –
NCCCC(=O)N[C@H]1C(OCc2ccc3ccccc3c2)O[C@H](COCc2ccc(Cl)cc2)[C@@H](O)[C@@H]1OCc1ccc2ccccc2c1 (single isomer, unassigned) [Compound 370] | + (Indicates inhibition greater than . . . 50%) | –
NCCCC(=O)N[C@H]1C(OCc2ccc3ccccc3c2)O[C@H](COCc2ccc(Cl)cc2)[C@@H](O)[C@@H]1OCc1ccc2ccccc2c1 (single isomer, unassigned) [Compound 371] | + (Indicates inhibition greater than . . . 50%) | –
NCCCC(=O)N[C@H]1C(OCc2ccc3ccccc3c2)O[C@H](COCc2ccc3ccccc3c2)[C@@H](O)[C@@H]1OCc1ccccc1 (single isomer, unassigned) [Compound 372] | + (Indicates inhibition greater than . . . 50%) | –
NCCCC(=O)N[C@H]1C(OCc2ccc3ccccc3c2)O[C@H](COCc2ccc3ccccc3c2)[C@@H](O)[C@@H]1OCc1ccccc1 (single isomer, unassigned) [Compound 373] | + (Indicates inhibition greater than . . . 50%) | –
NCCCC(=O)N[C@H]1C(OCc2ccc(Cl)cc2)O[C@H](COCc2ccc3ccccc3c2)[C@@H](O)[C@@H]1OCc1ccc2ccccc2c1 (single isomer, unassigned) [Compound 389] | + (Indicates inhibition greater than . . . 50%) | –
NCCCC(=O)N[C@H]1C(OCc2ccc(Cl)cc2)O[C@H](COCc2ccc3ccccc3c2)[C@@H](O)[C@@H]1OCc1ccc2ccccc2c1 (single isomer, unassigned) [Compound 390] | + (Indicates inhibition greater than . . . 50%) | –
NCCCC(=O)N[C@H]1C(OCc2ccc(Cl)cc2)O[C@H](COCc2ccccc2)[C@@H](O)[C@@H]1OCc1ccc2ccccc2c1 (single isomer, unassigned) [Compound 391] | + (Indicates inhibition greater than . . . 50%) | –
NCCCC(=O)N[C@H]1C(OCc2ccc(Cl)cc2)O[C@H](COCc2ccccc2)[C@@H](O)[C@@H]1OCc1ccc2ccccc2c1 (single isomer, unassigned) [Compound 392] | + (Indicates inhibition greater than . . . 50%) | –
NCCCC(=O)N[C@H]1C(OCc2ccc(Cl)cc2)O[C@H](COCc2ccc(Cl)cc2)[C@@H](O)[C@@H]1OCc1ccc2ccccc2c1 (single isomer, unassigned) [Compound 393] | + (Indicates inhibition greater than . . . 50%) | –
NCCCC(=O)N[C@H]1C(OCc2ccc(Cl)cc2)O[C@H](COCc2ccc(Cl)cc2)[C@@H](O)[C@@H]1OCc1ccc2ccccc2c1 (single isomer, unassigned) [Compound 394] | + (Indicates inhibition greater than . . . 50%) | –
COC[C@H]1OC(OCc2ccccc2)[C@H](NC(=O)CNC(=N)N)[C@@H](OCc2ccc(-c3ccccc3)cc2)[C@@H]1O (some centres unmarked) [Compound 5] | – | + (Indicates inhibition greater than . . . 50%)
COC[C@H]1OC(OCCc2ccccc2)[C@H](NC(=O)CNC(=N)N)[C@@H](OCc2ccc(-c3ccccc3)cc2)[C@@H]1O (some centres unmarked) [Compound 19] | – | + (Indicates inhibition greater than . . . 50%)
COC[C@H]1OC(OCCc2ccccc2)[C@H](NC(=O)CCNC(=N)N)[C@@H](OCc2ccc(-c3ccccc3)cc2)[C@@H]1O (some centres unmarked) [Compound 20] | – | + (Indicates inhibition greater than . . . 50%)

Compound | MC4 Inhibition at 4.0 Micromolar | MC4 inhibition at 10 micromolar
CO[C@H]1[C@H](O)[C@@H](COCc2ccc(-c3ccccc3)cc2)OC(OCc2ccc(-c3ccccc3)cc2)[C@@H]1NC(=O)CCCNC(=N)N (some centres unmarked) [Compound 58] | – | + (Indicates inhibition greater than . . . 50%)
CO[C@H]1[C@H](O)[C@@H](COCc2ccc3ccccc3c2)OC(OCc2ccc(-c3ccccc3)cc2)[C@@H]1NC(=O)CNC(=N)N (some centres unmarked) [Compound 59] | – | + (Indicates inhibition greater than . . . 50%)
COC1C(O)C(COCc2ccc3ccccc3c2)OC(OCc2ccc(-c3ccccc3)cc2)C1NC(=O)CCCNC(=N)N (centres unmarked) [Compound 62] | – | + (Indicates inhibition greater than . . . 50%)
COC1C(O)C(COCc2ccc(Cl)cc2)OC(OCc2ccc(-c3ccccc3)cc2)C1NC(=O)CNC(=N)N (centres unmarked) [Compound 63] | – | + (Indicates inhibition greater than . . . 50%)
COC1C(O)C(COCc2ccc(Cl)cc2)OC(OCc2ccc(-c3ccccc3)cc2)C1NC(=O)CCNC(=N)N (centres unmarked) [Compound 64] | – | + (Indicates inhibition greater than . . . 50%)
COC1C(O)C(COCc2ccc(Cl)cc2)OC(OCc2ccc(-c3ccccc3)cc2)C1NC(=O)CCCN (centres unmarked) [Compound 65] | – | + (Indicates inhibition greater than . . . 50%)
COC1C(O)C(COCc2ccc(Cl)cc2)OC(OCc2ccc(-c3ccccc3)cc2)C1NC(=O)CCCNC(=N)N (centres unmarked) [Compound 66] | – | + (Indicates inhibition greater than . . . 50%)
COC1C(O)C(COCc2ccc(-c3ccccc3)cc2)OC(OCc2ccc3ccccc3c2)C1NC(=O)CNC(=N)N (centres unmarked) [Compound 67] | – | + (Indicates inhibition greater than . . . 50%)
COC1C(O)C(COCc2ccc(-c3ccccc3)cc2)OC(OCc2ccc3ccccc3c2)C1NC(=O)CCNC(=N)N (centres unmarked) [Compound 68] | – | + (Indicates inhibition greater than . . . 50%)
COC1C(O)C(COCc2ccc(-c3ccccc3)cc2)OC(OCc2ccc3ccccc3c2)C1NC(=O)CCCNC(=N)N (centres unmarked) [Compound 70] | – | + (Indicates inhibition greater than . . . 50%)
COC1C(O)C(COCc2ccc3ccccc3c2)OC(OCc2ccc3ccccc3c2)C1NC(=O)CNC(=N)N (centres unmarked) [Compound 71] | – | + (Indicates inhibition greater than . . . 50%)
COC1C(O)C(COCc2ccc3ccccc3c2)OC(OCc2ccc3ccccc3c2)C1NC(=O)CCNC(=N)N (centres unmarked) [Compound 72] | – | + (Indicates inhibition greater than . . . 50%)
COC1C(O)C(COCc2ccc3ccccc3c2)OC(OCc2ccc3ccccc3c2)C1NC(=O)CCCNC(=N)N (centres unmarked) [Compound 74] | – | + (Indicates inhibition greater than . . . 50%)
COC1C(O)C(COCc2ccc(Cl)cc2)OC(OCc2ccc3ccccc3c2)C1NC(=O)CNC(=N)N (centres unmarked) [Compound 75] | – | + (Indicates inhibition greater than . . . 50%)
COC1C(O)C(COCc2ccc(Cl)cc2)OC(OCc2ccc3ccccc3c2)C1NC(=O)CCNC(=N)N (centres unmarked) [Compound 76] | – | + (Indicates inhibition greater than . . . 50%)
COC1C(O)C(COCc2ccc(Cl)cc2)OC(OCc2ccc3ccccc3c2)C1NC(=O)CCCNC(=N)N (centres unmarked) [Compound 78] | – | + (Indicates inhibition greater than . . . 50%)
COC1C(O)C(COCc2ccc(-c3ccccc3)cc2)OC(OCc2ccccc2)C1NC(=O)CCCNC(=N)N (centres unmarked) [Compound 79] | – | + (Indicates inhibition greater than . . . 50%)
COC1C(O)C(COCc2ccc(Cl)cc2)OC(OCc2ccccc2)C1NC(=O)CCCN (centres unmarked) [Compound 81] | – | + (Indicates inhibition greater than . . . 50%)
COC1C(O)C(COCc2ccc(Cl)cc2)OC(OCc2ccccc2)C1NC(=O)CCCNC(=N)N (centres unmarked) [Compound 82] | – | + (Indicates inhibition greater than . . . 50%)

From patent US7994140B2, “Classes of compounds that interact with GPCRs” (Alchemia Limited, priority 2002, dated 2011)
